Common to all, as to type: in vivo, mouse
A short description of data set [1]: Bile weight in lean C57BL/6N mice after OGTT. The following applies: 30 mg/kg + sitagliptin 3 mg/kg p.o., 6 h, versus sitagliptin alone. As for the experimental part: In addition, bile weight was determined in the OGTT study on lean mice described in Example 84 above. At the end of that study, bile was removed from the gallbladder and weighed to approximate volume of bile contained within the gallbladder.
FIG. 7 depicts bile weight in DIO mice at 6, 12, 18, and 24 hours after oral administration of 10 mg/kg sitagliptin alone or 10 mg/kg sitagliptin+30 mg/kg Compound 268. FIG. 8 depicts the comparison in bile weight between sitagliptin (3 mg/kg, p.o.) and Compound 268 (30 mg/kg, p.o.)+sitagliptin (3 mg/kg, p.o.) following an OGTT assay in lean C57BL/6N mice, 6 hours after treatment. FIG. 9 illustrates plasma GLP-1 levels from the DIO mice at the same time points.

The subject of data set [2] is GLP-1. The data set can be described thus: Plasma GLP-1 time course after a single oral dose in DIO mice. The following applies: 30 mg/kg + sitagliptin versus sitagliptin alone, 6-24 h. Here is the method:
In this study, we evaluated if the observed GLP-1 elevation (induced by the compounds of the present invention) may be associated with gallbladder filling. We treated mice with Compound 268 and monitored the bile weight (a measure that indicated gallbladder filling) to determine if the compound retained more bile in the gallbladder as compared to the control mice (i.e., vehicle alone). A time course study was performed to measure weight of the bile aspirated from the gallbladder after oral administration of Compound 268 (30 mg/kg) in high fat diet induced obese (DIO) mice. In this study, GLP-1 levels were also measured at each time point (FIG. 9).
Approximately 12 week old DIO male mice (obtained from Taconic) were acclimated in the testing facility for over two weeks. The mice were provided a high fat diet [Research Diet D12492 (60% Fat kcal)] while in the testing facility. […] The blood samples were distributed as follows: 150-200 μL of blood were placed in an EDTA K^2+ tube containing 5 μL of 40 mg/mL aprotinin (Sigma A1153) and 1 μL of 10 mM sitagliptin (Sigma 58576) to be used for GLP-1 measurements; the remaining blood (≥250 μL) was placed in an EDTA K^2+ tube and plasma was processed for analytical chemistry and analyzed by LCMS/MS method as described in Example 81. […]

The nature of data set [3]: Plasma concentration of compound in DIO mice over 24 hours. The following applies: 30 mg/kg p.o. + sitagliptin 10 mg/kg, 6, 12, 18, 24 h. As for the experimental part: Plasma Concentration of Compound in Mice
(§1) In these studies, the plasma concentration of the compounds of the present invention was measured in DIO mice as well as lean C57BL/6N mice.
In the first study, (data represented in FIG. 10), plasma concentration levels were measured over a 24 hour time period in DIO mice. Following the treatment with the compound, the blood was collected via cardiac puncture at 6, 12, 18, and 24 hours. The blood samples (>250 μL) were placed in an EDTA K^2+ tube and plasma was processed for analytical chemistry and analyzed by LCMS/MS method as described in Example 81. FIG. 10 depicts the plasma concentrations of Compound 268 after oral administration at 30 mg/kg in combination with 10° mg/kg sitagliptin. The plasma concentrations of Compound 268 were below 10 nM at every tested time points.

Data set [4] in a line: Plasma concentration of compound in lean C57BL/6N mice after OGTT. The following applies: 6 h after 30 mg/kg + sitagliptin 3 mg/kg. As for the experimental part: as §1
In the second study (data represented in FIG. 11), plasma concentration levels were measured in lean mice after an OGTT experiment described in Example 84. The blood was collected via cardiac puncture 6 hours post compound dosing (and 2 hours after the 2 g/kg glucose bolus). The blood samples (?250 μL) were placed in an EDTA K^2+ tube and plasma was processed for analytical chemistry and analyzed by LCMS/MS method as described in Example 81. FIG. 11 depicts low levels of Compound 268 following OGTT in lean C57BL/6N mice, 6 hours after treatment with 30 mg/kg in combination with 3 mg/kg sitagliptin.

Data set [5] is described as follows: Body weight over 6 weeks of BID dosing in DIO mice. To be noted: 30 mg/kg BID p.o. As for the experimental part:
Monitoring of Weight Loss after Multiple Weeks of Dosing Compounds
Compounds of the present invention were dosed for multiple weeks and were evaluated for their ability to cause mice to lose weight.
(§2) In the next series of studies (Examples 93-99), Male DIO mice were received at 12 weeks of age (from Taconic), and were single-housed at the testing facility and acclimated for at least 2 weeks. The mice were provided a high fat diet [Research Diet D12492 (60% Fat kcal)] while in the testing facility. Before the study initiation, the animals were randomized into 5 experimental groups by body weight. The vehicle group contained only 0.5% carboxymethylcellulose (medium viscosity)+0.25% Tween-80. The second group contained 10 mg/kg of the DPP-IV inhibitor Sitagliptin while the third group contained 30 mg/kg Compound 268. The fourth group contained the combination of 10 mg/kg Sitagliptin and 30 mg/kg Compound 268. The fifth group was the positive control for weight loss, Rimonabant. All mice were dosed BID at approximately 6:00 am and again at approximately 4:00 pm. The positive control rimonabant was administered at a dose of 10 mg/kg in the afternoon and the morning dosing was vehicle (no compound).
Compounds of the present invention were evaluated for their ability to cause mice to lose weight. Mice were dosed compounds for 6 weeks and body weights were recorded twice a week.

The nature of data set [6]: Food intake over multiple weeks of dosing in DIO mice. To be noted: 30 mg/kg BID p.o., 6 weeks.
Source text: as §2, with “compound). […]” for “compound).”
Compounds of the present invention were dosed for multiple weeks and were evaluated for their ability to cause mice to have a lower food intake. […]
The HFD (Research Diets, D12492, 60% fat kcal) was placed at the bottom of the cage on a singly-housed animal. […] Daily food intake is calculated by averaging over a 3 or 4 day period every week.

For the compound `N#Cc1ccc(CCNC(=O)[C@@H]2CCN2c2cc(N3CCC(CCNC(=O)NCCC(=O)O)CC3)nc(C(F)(F)F)n2)cc1` [Compound 268, (S)-3-(3-(2-(1-(6-(2-((4-cyanophenethyl)carbamoyl)azetidin-1-yl)-2-(trifluoromethyl)pyrimidin-4-yl)piperidin-4-yl)ethyl)ureido)propanoic acid], the bile weight result in data set [1] was “no significant differences in bile weight”. For the same compound, the “plasma GLP-1 levels” value in data set [2] is “significant elevation of GLP-1 levels”. Besides, the “plasma concentration of compound” value in data set [3] was “below 10 nM”; in data set [4] it was “low levels”. The body weight change entry in data set [5] is “modest weight loss”. Also, the food intake entry in data set [6] is listed as “minor, but steady effect on food intake”.

(Values after patent US10654834B2 (Venenum Biodesign, LLC, priority 2016, dated 2020).)
